Data: patent US20110001042A1, “ASSESSING TREATMENT COMPLIANCE” (priority 2007, published 2011)
Several values for one entry are separate records, joined by “and”; a condition that tells them apart may be missing. Identical values can stand only once.

Key:
[1] = fluticasone 17β carboxylic acid measured in urine with and without preservatives; type: physicochemical; conditions: individual specimens, mean, bias
Protocol: Fluticasone 17β carboxylic acid was measured in urine samples lacking preservatives or urine samples containing one of the following preservatives: boric acid, glacial acetic acid, HCL, toluene, or sodium bicarbonate (Table 5).
In summary, non-preserved urine can be used effectively. Samples acquired with boric acid preservative indicated an individual bias of −0.6 to 5.0% and a mean bias of 1.4% from non-preserved urine specimen. Samples acquired in glacial acetic acid preservative indicated an individual bias of −18.9 to 17.1% and a mean bias of −1.2% from non-preserved urine specimen. Samples acquired in HCL preservative indicated an individual bias of −14.5 to 9.1% and a mean bias of −5.8% from non-preserved urine specimen. Samples acquired in sodium bicarbonate preservative indicated an individual bias of −94.7 to −92.5% and a mean bias of −93.8% from non-preserved urine specimen. Samples acquired in toluene preservative indicated an individual bias of −10.6 to 9.8% and a mean bias of 0.3% from non-preserved urine specimen. Thus, urine containing boric acid, glacial acetic acid, HCL, or toluene are acceptable. Urine containing sodium bicarbonate preservative is not as acceptable.

[2] = sensitivity and specificity of urine fluticasone 17β carboxylic acid after witnessed fluticasone propionate administration in asthma patients; type: in vivo, human; conditions: Fluticasone Administered Under Observation, 16-24 hours before sample
Protocol: In order to evaluate the sensitivity and specificity of fluticasone 17β carboxylic acid, nineteen patients with asthma were recruited. Nine of these subjects were on treatment with fluticasone propionate. As a gold standard of compliance, treatment was documented by an RN study nurse who witnessed the patients' administration of fluticasone propionate 16-24 hours prior to submission of a urine sample for the analysis of fluticasone 17 β carboxylic acid. Urine samples from ten subjects with asthma but not receiving fluticasone propionate were used as controls.

[3] = fluticasone-17β carboxylic acid in urine of patients before, during and after FP therapy by LC-MS/MS; type: in vivo, human
Protocol: Fluticasone-17β carboxylic acid was extracted from urine using an acetonitrile precipitation followed by methylene chloride liquid extraction of the supernatant. Sixty μL of the reconstituted sample extract was analyzed by LC-MS/MS (ABI 4000). The linearity, precision, recovery and limit of quantitation (LOQ) were determined. Measurement of fluticasone-17β carboxylic acid in urine collected daily from patients before (days 1-2), during (days 3-6; total dose Flovent 110 2 puffs daily), and following cessation of FP therapy (days 7-14) was conducted (n=4). The linear range of fluticasone-17β carboxylic acid measured by LC-MS/MS was 10-9510 pg/mL. The LOQ with a CV<20% was 10 pg/mL, and recovery ranged from 85.8-111.9% with a mean of 97.9%. Within-run precision testing indicated a maximum CV of 9.3% at 10.3 pg/mL. Between-run precision CVs for urine pools spiked with 3 concentrations of fluticasone-17 β carboxylic acid were 10.6% at 11.1 pg/mL, 11.2% at 500.9 pg/mL, and 8.7% at 5116 pg/mL. Detection of fluticasone-17β carboxylic acid in urine from patients prior to FP therapy was <10 pg/mL (days 1 & 2), ranged from 157-1830 pg/mL when receiving therapy (days 3-6) and was undetectable 5 days after stopping therapy (days 11-14). An eight-point calibration curve (0, 10, 25, 100, 200, 1000, 2000, and 10000 pg/mL) and three controls (10, 500 and 5000 pg/mL) were prepared in charcoal stripped-urine and included with each assay run. Aliquots of urine were centrifuged for 5 minutes at 1000g to remove particulate matter. A 1.0 mL fraction of each calibrator, control, and urine sample was transferred into an appropriately labeled 12×75 mm glass tube. Internal standard (100 μL of 40 ng/mL fluorometholone working solution per sample) was added to each calibrator, control, and urine sample followed by gentle vortexing and incubation for 5 minutes at ambient temperature. Acetonitrile with 0.1% HCl (1.5 mL/sample) was then added, and tubes were vortexed and centrifuged at 1500g for 10 minutes. […]

[4] = stability of fluticasone 17β carboxylic acid in pooled urine stored ambient, refrigerated or freeze/thaw; type: physicochemical; conditions: for % Diff. 3: Ambient, Day 3; for % Diff 7: Day 7
Protocol: Fluticasone 17β carboxylic acid was measured in pooled urine samples lacking preservatives that were stored at ambient temperature, were refrigerated, or were frozen and subjected to freeze/thaw cycles (Table 6).
Fluticasone 17β carboxylic acid was measured in pooled urine samples containing boric acid as a preservative that were stored at ambient temperature, were refrigerated, or were frozen and subjected to freeze/thaw cycles (Table 7).
Fluticasone 17β carboxylic acid was measured in pooled urine samples containing glacial acetic acid as a preservative that were stored at ambient temperature, were refrigerated, or were frozen and subjected to freeze/thaw cycles (Table 8).
Fluticasone 17β carboxylic acid was measured in pooled urine samples containing hydrochloric acid as a preservative that were stored at ambient temperature, were refrigerated, or were frozen and subjected to freeze/thaw cycles (Table 9).
Fluticasone 17β carboxylic acid was measured in pooled urine samples containing toluene as a preservative that were stored at ambient temperature, were refrigerated, or were frozen and subjected to freeze/thaw cycles (Table 10).

Negative Urine (number of subjects) [2]: 0
Positive Urine (number of subjects) [2]: 9
fluticasone-17β carboxylic acid in urine ([3]; 5 days after stopping therapy (days 11-14)): undetectable
fluticasone-17β carboxylic acid in urine ([3]; patients prior to FP therapy (days 1 & 2)): < 10 pg/mL
fluticasone-17β carboxylic acid in urine ([3]; patients receiving therapy (days 3-6; Flovent 110 2 puffs daily)): 157 to 1830 pg/mL
time stable ([4]; boric acid-preserved urine, ambient temperature): 7 days
freeze-thaw cycles stable ([4]; boric acid-preserved urine, frozen): up to 1 freeze-thaw cycle
time stable ([4]; boric acid-preserved urine, refrigerated): 3 days
time stable ([4]; glacial acetic acid-preserved urine, ambient temperature): 7 days
freeze-thaw cycles stable ([4]; glacial acetic acid-preserved urine, frozen): up to 2 freeze-thaw cycles
time stable ([4]; hydrochloric acid-preserved urine, ambient temperature): 7 days
freeze-thaw cycles stable ([4]; hydrochloric acid-preserved urine, frozen): up to 1 freeze-thaw cycle
time stable ([4]; hydrochloric acid-preserved urine, refrigerated): 3 days
time stable ([4]; non-preserved urine, ambient temperature): 3 days
freeze-thaw cycles stable ([4]; non-preserved urine, frozen): up to 3 freeze-thaw cycles
time stable ([4]; non-preserved urine, refrigerated): 7 days
freeze-thaw cycles stable ([4]; toluene-preserved urine, immediately frozen): up to 3 freeze-thaw cycles
% Diff. 3 ([4]; urine Boric Acid): 1.2% and −1.3% and −7.9%
% Diff. 3 ([4]; urine Boric Acid, mean): −2.7%
% Diff. 1 ([4]; urine Boric Acid, Freeze/Thaw, F/T 1): −9.3% and −5.4% and −10.1%
% Diff. 1 ([4]; urine Boric Acid, Freeze/Thaw, F/T 1, mean): −8.3%
% Diff 7 ([4]; urine Boric Acid, Refrigerated): −14.5% and −10.1% and −16.3%
% Diff 7 ([4]; urine Boric Acid, Refrigerated, mean): −13.7%
% Diff. 1 ([4]; urine HCL, Refrigerated, Day 1): −4.6% and −2.6% and −9.5%
% Diff. 1 ([4]; urine HCL, Refrigerated, Day 1, mean): −5.6%
% Diff 7 ([4]; urine HCL, Refrigerated): −17.1% and −8.5%
% Diff 7 ([4]; urine HCL, Refrigerated, mean): −11.4%
% Diff. 1 ([4]; urine Toluene, Refrigerated, Day 1): −19.5% and −12.4% and −11.4%
% Diff. 1 ([4]; urine Toluene, Refrigerated, Day 1, mean): −14.4%
% Diff. 1 ([4]; urine no pres, Freeze/Thaw, F/T 1): 0.0% and −6.6% and −6.1%
% Diff. 1 ([4]; urine no pres, Freeze/Thaw, F/T 1, mean): −4.2%
% Diff. 1 ([4]; urine no pres, Refrigerated, Day 1): −7.5% and −4.4% and −11.5%
% Diff. 1 ([4]; urine no pres, Refrigerated, Day 1, mean): −7.8%
SMILES: CCC(=O)O[C@]1(C(=O)O)[C@H](C)C[C@H]2[C@@H]3C[C@H](F)C4=CC(=O)C=C[C@]4(C)[C@@]3(F)[C@@H](O)C[C@@]21C [Fluticasone 17β carboxylic acid]
% Difference between No Pres & HCL ([1]; urine with HCL): −14.5 to 9.1% and −5.8% and 9.1% and −12.1% and −14.5%
% Difference between No Pres & BA ([1]; urine with boric acid): −0.6 to 5.0% and 1.4% and 5.0% and −0.6% and −0.3%
% Difference between No Pres & GAA ([1]; urine with glacial acetic acid): −18.9 to 17.1% and −1.2% and 17.1% and −1.7% and −18.9%
% Difference between No Pres & Na2CO3 ([1]; urine with sodium bicarbonate): −94.7 to −92.5% and −93.8% and −94.2% and −94.7% and −92.5%
% Difference between No Pres & Toluene ([1]; urine with toluene): 0.3% and −10.6 to 9.8% and −10.6% and 9.8% and 1.6%
